# Results reported in PMC8419835.
# Assay: Head-to-tail amide by intramolecular native chemical ligation: N,S-acyl shift of a C-terminal N-2-[thioethyl]glycine residue on TentaGel, transthioesterification with 50 equiv external thiol (MESNa or MPAA), then attack by N-terminal Cys and S,N-acyl shift, one pot
# Settings: the molecule shown is the open-chain precursor, aqueous: procedure B citrate pH 3 then phosphate pH 7.4 (DTT), procedure C 1 M TEAB pH 7.0 (MPAA, DTT), resin, 48.0 h, 2 steps
molecule,measurement,setting,value
"H-Cys-Arg-Cys-Leu-Cys-Arg-Arg-Gly-Val-Cys-Arg-Cys-Ile-Cys-Thr-Arg-Gly-Phe-[N-2-(thioethyl)Gly]-linker-TentaGel (linker Ala-Ala-Met or bAla-Ala-bAla-Met, text inconsistent; side chains unprotected, all Cys as free SH; via MPAA thioester)","ring closure, yield over several steps",54-membered ring,39%
C[C@H](NC(=O)[C@H](CCCCN)NC(=O)[C@@H]1CCCN1C(=O)[C@@H](N)CS)C(=O)SCCS(=O)(=O)O,"ring closure, yield over several steps",12-membered ring,24.1%
"H-Cys-Thr-Lys-Ser-Ile-Pro-Pro-Ile-Cys-Phe-Pro-Asp-Gly-Arg-[N-2-(thioethyl)Gly]-linker-TentaGel (linker Ala-Ala-Met or bAla-Ala-bAla-Met, text inconsistent; side chains unprotected, both Cys as free SH; via MPAA thioester)","ring closure, yield over several steps",42-membered ring,40%
C[C@H](NC(=O)[C@H](CCCCN)NC(=O)[C@@H]1CCCN1C(=O)CNC(=O)[C@H](Cc1ccccc1)NC(=O)[C@@H](N)CS)C(=O)SCCS(=O)(=O)O,"ring closure, yield over several steps",18-membered ring,25.8%
C[C@@H](O)[C@H](NC(=O)[C@H](Cc1ccccc1)NC(=O)[C@@H]1CCCN1C(=O)[C@H](CC(N)=O)NC(=O)[C@@H]1CCCN1C(=O)[C@H](Cc1ccccc1)NC(=O)[C@@H](N)CS)C(=O)Sc1ccc(CC(=O)O)cc1,"ring closure, yield over several steps",21-membered ring,55%
